Experimental findings from paper PMC9750858, “Rapid biosensor development using plant hormone receptors as reprogrammable scaffolds” (Nature Biotechnology, 2022) are described below.

Where “and” joins values, the source holds several entries; their conditions need not be identical. Identical values can stand only once.

The subject of assay [1] is PYR1-derived cannabinoid receptors (PYR1 mutants) binding HAB1. The conditions noted are these: for cannabinoid concentration to which CB-S1 library clones respond (as low as): clones from shuffled library CB-S1; for selectivity of Y2H response of the sensor evolved for the ligand: PYR1^CBDA or PYR1^CP 47,497, all ligands tested at 25 µM.
Another assay concerns the target T1, PYR1^WIN-M (Arabidopsis thaliana, UniProt O49686, A160I/D26G/E4G/F159A/H60P/K59Q/N90S/Y23H).
T1 construct: made in house
T1 sequence (O49686 with tags, fused parts or gaps E4G/Y23H/D26G/K59Q/H60P/N90S/F159A/A160I): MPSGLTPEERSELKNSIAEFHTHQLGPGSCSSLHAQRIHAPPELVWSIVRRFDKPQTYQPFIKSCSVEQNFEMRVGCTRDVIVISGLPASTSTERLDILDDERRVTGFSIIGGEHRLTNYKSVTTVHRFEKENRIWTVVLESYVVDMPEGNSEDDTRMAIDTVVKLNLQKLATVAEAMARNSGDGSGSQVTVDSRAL
The assay is described as follows: ELISA-like plate assay, immobilized PYR1^WIN-M, biotinylated ΔN-HAB1^T+. The format is binding. The conditions noted are these: replicates.

The next assay concerns the target T2, PYR1^PIRI (Arabidopsis thaliana, UniProt O49686, A160T/E130G/F159T/K59R/N119S/S122Q/S92M/V174A).
T2 construct: >PYR1-PIRI; expressed in transfected cells; host or cells: Saccharomyces cerevisiae BY4742
The assay is described as follows: Split NanoLuc luciferase complementation in yeast, NLuc^N-PYR1^PIRI/NLuc^C-HAB1. The format is cell-based. As to conditions: Figure 4f(bottom), replicates.

In a further assay the target is PYR1^DIAZI (Arabidopsis thaliana, UniProt O49686, A160V/E8G/F108Y/F159G/L87M/M158V/V81Y). The assay can be described thus: Split NanoLuc luciferase complementation in yeast, NLuc^N-PYR1^DIAZI/NLuc^C-HAB1. Format: cell-based. Also noted: >PYR1-DIAZI; expressed in transfected cells; host or cells: Saccharomyces cerevisiae BY4742. The conditions noted are these: Figure 4f(top), 3 replicates.
Sequence of PYR1^DIAZI (Q9CAJ0 179-511): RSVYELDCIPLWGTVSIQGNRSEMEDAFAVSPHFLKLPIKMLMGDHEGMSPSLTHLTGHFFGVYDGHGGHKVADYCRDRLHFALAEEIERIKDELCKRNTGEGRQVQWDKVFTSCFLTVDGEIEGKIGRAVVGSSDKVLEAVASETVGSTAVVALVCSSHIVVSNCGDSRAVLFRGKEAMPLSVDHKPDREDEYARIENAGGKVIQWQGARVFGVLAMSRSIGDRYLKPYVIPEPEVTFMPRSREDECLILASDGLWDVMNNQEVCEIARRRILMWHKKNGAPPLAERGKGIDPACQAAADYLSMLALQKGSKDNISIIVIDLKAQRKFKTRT
Sequence of PYR1^DIAZI (O49686 other isoform, or with tags, fused parts or gaps E8G/V81Y/L87M/F108Y/M158V/F159G/A160V): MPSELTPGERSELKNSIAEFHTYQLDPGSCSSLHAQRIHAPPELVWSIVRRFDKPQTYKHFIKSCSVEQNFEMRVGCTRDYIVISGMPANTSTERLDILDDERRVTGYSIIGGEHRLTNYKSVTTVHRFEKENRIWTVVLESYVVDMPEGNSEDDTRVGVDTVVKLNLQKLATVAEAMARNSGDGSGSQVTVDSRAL

T2 sequence (O49686 other isoform, or with tags, fused parts or gaps K59R/S92M/N119S/S122Q/E130G/F159T/A160T/V174A): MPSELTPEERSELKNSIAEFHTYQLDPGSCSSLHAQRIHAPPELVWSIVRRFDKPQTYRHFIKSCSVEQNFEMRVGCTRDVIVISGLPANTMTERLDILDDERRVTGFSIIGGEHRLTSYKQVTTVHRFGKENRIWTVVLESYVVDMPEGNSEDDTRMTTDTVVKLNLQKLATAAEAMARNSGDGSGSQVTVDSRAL
T2 sequence (Q9CAJ0 179-511, further chain): as the sequence (Q9CAJ0 179-511) above

As to `CCCCCn1cc(C(=O)c2cccc3ccccc23)c2ccccc21` [JWH-018], the “cannabinoid concentration to which CB-S1 library clones respond (as low as)” value (from here on “cannabinoid concentration”) in assay [1] was found to be 500 nM.
As to `CCCCn1c(C)c(C(=O)c2cccc3ccccc23)c2ccccc21` [JWH-016], in assay [1], the “cannabinoid concentration” value stood at 50 nM.
With `CCCn1cc(C(=O)c2cccc3ccccc23)c2ccccc21` [JWH-072], the “ELISA signal generation, receptor cross-reactivity (source data)” value on PYR1^WIN-M (cannabinoid at 2 nM) was 0.289 and 0.097 and 0.074; at PYR1^WIN-M (cannabinoid at 2 μM), 0.219 and 0.29 and 0.268. Besides, the “cannabinoid concentration” value in assay [1] was found to be 50 nM.
`CCCCCCC(C)(C)c1ccc(C2CCCC(O)C2)c(O)c1` (centres unmarked) [CP 47,497, cannabicyclohexanol]: the “ELISA signal generation, receptor cross-reactivity (source data)” value on PYR1^WIN-M (cannabinoid at 2 nM, 497) was 0.117 and 0.142 and 0.12; at PYR1^WIN-M (cannabinoid at 2 μM, 497) it was 0.105 (2×) and 0.078. Also, the “selectivity of Y2H response of the sensor evolved for the ligand” value in assay [1] was “selectively responds”.
`CCCn1c(C)c(C(=O)c2cccc3ccccc23)c2ccccc21` [JWH-015]: in assay [1], the “cannabinoid concentration” value is 100 nM.
Turning to `COP(=S)(OC)Oc1ccc([N+](=O)[O-])cc1` [Parathion-methyl, parathion-methyl], the “Sensor signal (Figure 4f bottom), replicate values” on PYR1^PIRI ([Agonist] 1e-5 nM) was 11.8454 and 17.8157 and 9.952; at PYR1^PIRI ([Agonist] 0.5 nM) it was 11.1865 and 13.661 and 9.612; on PYR1^PIRI ([Agonist] 1 nM) it was 11.9354 and 18.4849 and 9.205; on PYR1^PIRI ([Agonist] 10 nM), 10.4509 and 13.1415 and 9.783; at PYR1^PIRI ([Agonist] 100 nM), 9.423 and 12.7271 and 15.286; on PYR1^PIRI ([Agonist] 1000 nM) it was 9.542 and 20.0758 and 23.4336. Also, the “Sensor signal (Figure 4f bottom), replicate values” on PYR1^PIRI ([Agonist] 10000 nM) is 13.1296 and 21.6675 and 76.706; on PYR1^PIRI ([Agonist] 100000 nM), 11.2909 and 29.034 and 72.4977. Also, the “Sensor signal (Figure 4f top), replicate values” was 15.0369 and 11.1106 and 15.282 on PYR1^DIAZI ([Agonist] 1e-5 nM); 71.449 and 15.1942 and 16.4674 at PYR1^DIAZI ([Agonist] 0.5 nM); 69.4998 and 48.0045 and 15.815 at PYR1^DIAZI ([Agonist] 1 nM); 30.1106 and 67.3607 and 15.8069 on PYR1^DIAZI ([Agonist] 10 nM); 15.5477 and 62.6829 and 17.0922 at PYR1^DIAZI ([Agonist] 100 nM); 34.4735 and 76.5381 and 29.0859 at PYR1^DIAZI ([Agonist] 1000 nM). Moreover, the “Sensor signal (Figure 4f top), replicate values” was 73.5456 and 54.5583 and 65.8713 on PYR1^DIAZI ([Agonist] 10000 nM); 78.279 and 10.2013 and 20.8749 at PYR1^DIAZI ([Agonist] 100000 nM).
In the case of `C=C(C)[C@@H]1CCC(C)=C[C@H]1c1c(O)cc(CCCCC)c(C(=O)O)c1O` [CBDA, cannabidiolic acid], in assay [1], the “selectivity of Y2H response of the sensor evolved for the ligand” value is listed as “selectively responds”.
